Results taken from ChEMBL document CHEMBL5131458, “Design, synthesis and human carbonic anhydrase I, II, IX and XII inhibitory properties of 1,3-thiazole sulfonamides” (Bioorg Med Chem Lett, 2022).

Biological target: Carbonic anhydrase 9 (Homo sapiens, UniProt Q16790)
Assay: Inhibition of recombinant human carbonic anhydrase 9 incubated for 15 mins by phenol red based stopped-flow CO2 hydration assay

| Ki | Compound |
| --- | --- |
| 90.3 nM | CC(C)OC(=O)c1csc(Nc2ccc(S(N)(=O)=O)cc2)n1 |
| 150 nM | NS(=O)(=O)c1ccc(Nc2nc(C(=O)OCCOc3ccccc3)cs2)cc1 |
| 49.9 nM | CCCOC(=O)c1csc(Nc2ccc(S(N)(=O)=O)cc2)n1 |
| 26.8 nM | NS(=O)(=O)c1ccc(Nc2nc(C(=O)OCCOCCO)cs2)cc1 |
| 43.2 nM | NS(=O)(=O)c1ccc(Nc2nc(C(=O)OCCO)cs2)cc1 |
| 51.2 nM | CCOCCOC(=O)c1csc(Nc2ccc(S(N)(=O)=O)cc2)n1 |
| 37.9 nM | CC(CO)OC(=O)c1csc(Nc2ccc(S(N)(=O)=O)cc2)n1 (stereo not given) |
| 78.9 nM | CCCCCCCCOC(=O)c1csc(Nc2ccc(S(N)(=O)=O)cc2)n1 |
| 74.3 nM | CCCCCCCOC(=O)c1csc(Nc2ccc(S(N)(=O)=O)cc2)n1 |
| 35.1 nM | COCCOC(=O)c1csc(Nc2ccc(S(N)(=O)=O)cc2)n1 |
| 70.6 nM | CCCCCCOC(=O)c1csc(Nc2ccc(S(N)(=O)=O)cc2)n1 |
| 86.8 nM | NS(=O)(=O)c1ccc(Nc2nc(C(=O)OCCCCc3ccccc3)cs2)cc1 |
| 72 nM | CCCCCOC(=O)c1csc(Nc2ccc(S(N)(=O)=O)cc2)n1 |
| 37.9 nM | CC(O)COC(=O)c1csc(Nc2ccc(S(N)(=O)=O)cc2)n1 (stereo not given) |
| 71.1 nM | CCCCOC(=O)c1csc(Nc2ccc(S(N)(=O)=O)cc2)n1 |
